Test results taken from patent publication US7776572B2, “Method for reducing loss of enzyme activity during storage” (Corning Incorporated, priority 1996, dated 2010).
Like-named read-outs stand apart in the source and are kept apart here.

Tests used:
IgG (horse) = assay: IgG binding to 24-well plates, surfactant dried or not dried before H2O rinse, colloidal Au; details: 0.5% surfactant in H2O/isopropanol (90/10); for Absorbance (550 nm) Dried before H2O rinse: then rinsed 5x; for Absorbance (550 nm) H2O rinsed before drying: not dried, rinsed 5x immediately
Method: Duplicate 24-well plates were prepared as follows. Individual wells were filled with 3 ml of non-ionic surfactants at 0.5% (weight/volume) in H2O/isopropanol (90/10 weight/volume).
The duplicate plates were incubated for 30 minutes at room temperature on a rocker table and then emptied. One plate was tapped out and then allowed to dry at room temperature in a hood. It was then rinsed 5× with dI H2O. The second plate was not allowed to dry, but instead was immediately rinsed 5× with H2O. The plates were then tested for protein binding by filling each well with 0.5 ml of IgG (horse) at 10 μg/ml in PBS buffer and incubating for 30 minutes on a rocker table at room temperature. The plates were then rinsed with dI H2O and stained overnight with colloidal Au.

rat = details: cited from earlier work
IgG = assay: Protein binding to coated 0.45 micron PVDF membranes, Au stain; details: coated two times by immersion, 0.1% in isopropanol; IgG 10 μg/ml
Method: The experiments were performed using 0.45 micron PVDF membranes. The membranes were coated two times by immersion using 0.1% (weight/volume) of the following non-ionic surfactants in isopropanol: sorbitol mono-oleate, Pluronic® L-121, Pluronic® L-122, and Pluronic® L-123. The membrane was dried at room temperature after each of the two immersion coatings. The coated membranes were incubated with IgG 10 μg/ml in 0.1M PBS (pH 7.4) for 30 minutes at room temperature on an orbital shaker. The membranes were then rinsed three times with water in a clean plate, each rinse being performed for 5 minutes on the shaker. Thereafter, the membranes were stained with Au overnight, again on the shaker. An uncoated PVDF membrane was used as a control.

BSA protein = assay: Coating stability in the presence of excess protein, colloidal gold
Method: The following procedures were employed in this example. 24-well polystyrene plates were coated as described in Materials and Methods using 25 μl aliquots of 0.10% (w/v) sorbitol mono-oleate in isopropanol. Coverage of the sorbitol mono-oleate was calculated at 10 μg/cm^2. Each well of the plates was exposed to 1.0 ml of BSA protein (Pierce) at 2 mg/ml in PBS buffer (pH=7.4). The plates were incubated on a rocker table for 30 minutes at room temperature, the wells were emptied, and the protein exposure was repeated a total of six times. The plates were then rinsed 3 times with dI H2O and stained with the colloidal gold stain overnight. Plates were then rinsed with dI H2O, dried, and the absorbance of each well was measured at 550 nm on the Cambridge Technologies plate reader.

IgG protein = assay: In-mold coating of 24-well polystyrene plates, protein binding by colloidal gold staining
Method: The in-mold coating aspects of the invention were tested by molding 24-well polystyrene plates. […] The 0.01% concentration was estimated to produce less than one monolayer of surfactant on the finished product, while the 0.1% concentration produced about 7 monolayers. The surfactant was applied to the mold using a Crown sprayer (Crown Industrial Products, Hebron, Ill.; Catalog #8011), which produces a sufficiently fine spray of droplets to uniformly coat the mold. The mold was sprayed before each part was made.

[1] = tested on: IgG (Horse Standard, Pierce); assay: Coating durability using protein solution washes on four polymers, colloidal Au; details: after six IgG solution exposures
Method: The procedures used were as follows. Injection molded assay plates (96-well format) were made from polystyrene, (STYRON Dow 685D), polypropylene (Exxon 9374), polymethyl methacrylate (ATO HAAS), and KYNAR FLEX 2800 PVDF copolymer (ATO HAAS). Each well was aliquoted 0.10 ml of IgG (Horse Standard, Pierce) at 10 μg/ml in 0.01 M PBS buffer (pH=7.4) and placed on a rocker table for 30 minutes at 23° C. The protein solution was then emptied from the wells and a fresh protein solution was aliquoted to each well and the entire procedure repeated a total of six times. The plates were then rinsed three times with dI H2O (0.3 ml/well). Colloidal Au stain was added to each well (0.3 ml/well) and the plates were placed on a rocker table overnight. Plates were then rinsed 3 times with dI H2O, allowed to dry, and absorbance at 550 nm was measured using the Cambridge Technologies Plate Reader.

In the case of `CCCCCCCC/C=C\CCCCCCCCOCCOCCO` [PEO(2) OLEYL ETHER], the “Absorbance (550 nm) Dried before H2O rinse” value (IgG (horse)) is reported as 0.00 and the “Absorbance (550 nm) H2O rinsed before drying” value (IgG (horse)) is reported as 0.14-0.16.

For `CCCCCCCCCCCCOCCOCCOCCOCCO` [PEO(4) LAURYL ETHER], the “Absorbance (550 nm) Dried before H2O rinse” value (IgG (horse)) is listed as 0.08-0.10, the “Absorbance (550 nm) H2O rinsed before drying” value (IgG (horse)) is listed as 0.13-0.16 and the LD50 (rat; in vivo) is listed as greater than 5 grams/Kg.

For SORBITOL MONO-OLEATE, the “protein binding to coated PVDF membrane” value (IgG) was “substantially identical to that of the uncoated PVDF”, the “Absorbance at 550 nm” value (BSA protein; 1 exposure to BSA 2 mg/ml, 30 min total, coated polystyrene) was 0.0 and the “Absorbance at 550 nm” value (BSA protein; 2 exposures, 60 min total) was 0.0. The “Absorbance at 550 nm” value (BSA protein; 3 exposures, 90 min total) was 0.0, the “Absorbance at 550 nm” value (BSA protein; 4 exposures, 120 min total) was 0.0 and the “Absorbance at 550 nm” value (BSA protein; 5 exposures, 150 min total) was 0.0. For the same compound, the “Absorbance at 550 nm” value (BSA protein; 6 exposures, 180 min total) was 0.0, the “protein binding of in-mold coated part” value (IgG protein; concentrations above 0.1%, ranging up to 2%) was “found to work successfully” and the “protein binding of in-mold coated part” value (IgG protein; mold sprayed with 0.01% (w/v) solution in isopropanol) was “pooling and missed areas were seen which bound protein”. For the same compound, the “protein binding of in-mold coated part” value (IgG protein; mold sprayed with 0.1% (w/v) solution in isopropanol) was “essentially no protein binding”, the “Absorbance (550 nm) Polypropylene” value [1] was 0.00 and the “Absorbance (550 nm) Polystyrene” value [1] was 0.00. For the same compound, the LD50 (rat) was greater than 39 grams/Kg.
